In patent publication US7192940B2, “Ether compounds” (Esperion Therapeutics, Inc., priority 1999, dated 2007):
One block for each compound: values may come before it.

Key:
male Sprague-Dawley rats = assay: Serum lipids, apolipoproteins and weight gain in chow-fed male Sprague-Dawley rats after seven days of oral treatment; format: in vivo, rat; settings: 100 mg/kg, 7 days, vs vehicle
Protocol: Illustrative compounds of the invention were administered daily at a dose of 100 mg/kg to chow fed male Sprague-Dawley rats for seven days in the morning by oral gavage in 1.5% carboxymethylcellulose/0.2% Tween-20 (dosing vehicle). Animals were weighed daily. Animals were allowed free access to rodent chow and water throughout the study. After the seventh dose, animals were sacrificed in the evening and blood serum was assayed for lipoprotein cholesterol profiles, serum triglycerides, total cholesterol VLDL, LDL, and HDL cholesterol, and the ratio of HDL cholesterol to that of VLDL plus LDL cholesterol, apolipoproteins A-I, C-II, C-III, and E by immunoelectrophoresis, and percent weight gain.
The five compounds were tested in two separate experiments. In each experiment, the experimental data were normalized against a control group of rats which received the dosing vehicle alone.

obese female Zucker rats [1] = assay: Experiment A: serum lipids, glucose, non-esterified fatty acids and weight gain in obese female Zucker rats after seven days of oral treatment; format: in vivo, rat; settings: vehicle 6.6%
Protocol: Dosing vehicle, Compound A (86 mg/kg of body weight) or troglitazone (120 mg/kg of body weight) was administered to eight week old female obese Zucker rats daily for seven days in the morning by oral gavage in 1.5% carboxymethylcellulose/0.2% Tween-20. Troglitazone was obtained commercially. Finely crushed tablets were suspended in vehicle for dosing. Orbital blood samples were obtained following a six-hour fast prior to the initial dose and also following the seventh dose.
Blood serum was assayed for total cholesterol and triglycerides (FIG. 5), lipoprotein cholesterol profiles (FIG. 6), VLDL plus LDL cholesterol combined (also referred to as apo B containing lipoprotein cholesterol or non-HDL cholesterol), HDL cholesterol, and the ratio of HDL cholesterol to that of VLDL plus LDL cholesterol (FIG. 7), serum glucose, and non-esterified fatty acids (FIG. 8), and percent weight gain (FIG. 9). […] In particular, Compound A caused a marked elevation in HDL cholesterol after one week of treatment. Using the serum total cholesterol values (FIG. 5A) and the lipoprotein cholesterol distribution (FIG. 6), the amount of cholesterol associated with non-HDL (i.e., VLDL plus LDL) and HDL were determined (FIG. 7). […] In contrast, troglitazone reduced non-HDL and HDL cholesterol by 67% and 4%, respectively.

obese female Zucker rats [2] = assay: Experiments B, C, D & E: serum lipids, glucose, insulin, body and liver weight in obese female Zucker rats treated for 14 days; format: in vivo, rat; settings: Experiment C
Protocol: In a number of different experiments, illustrative compounds of the invention and troglitazone were administered daily at various doses to 10-week old chow fed obese female Zucker rats for 14 days in the morning by oral gavage in 1.5% carboxymethylcellulose/0.2% Tween-20 (dosing vehicle). Animals were weighed daily. Animals were allowed free access to rodent chow and water throughout the study. Blood glucose was determined after a 6-hour fast in the afternoon without anesthesia from a tail vein. Serum was also prepared from a blood sample subsequently obtained from the orbital venous plexus (with O2/CO2 anesthesia) prior to and after one week treatment and used lipid and insulin determinations. At two weeks, blood glucose was again determined after a 6-hour fast without anesthesia from a tail vein. Soon thereafter, animals were sacrificed by CO2 inhalation in the evening and cardiac blood serum was collected and assessed for various lipids and insulin. Body weight was determined daily prior to dosing and at the time of euthanasia.

[3] = tested on: LDL receptor deficient mice; assay: Lipoprotein cholesterol profile in LDL receptor-deficient mice; format: in vivo; settings: 300 mg/kg/day; one week; chow-fed female mice
From the text: The effect of Compound A on LDL levels in a murine model of homozygous familial hypercholesterolemia (Ishibashi et al., 1993, J. Clin. Invest. 92:883–893; Ishibashi et al., 1994, J. Clin. Invest. 93:1885–1893) was studied. LDL receptor-deficient mice have elevated LDL cholesterol relative to wild type mice when fed a chow diet. When fed cholesterol-enriched diets, these mice develop atherosclerosis.

primary rat hepatocytes = assay: Synthesis of non-saponified and saponified lipids (14C-acetate incorporation) in hepatocytes; format: cell-based; settings: 100 μM; 2 hr 14C-acetate labeling; vs no compound control
Protocol: A male Sprague-Dawley rat was anesthetized by administration of sodium pentobarbitol by intraparitoneal injection at 50 mg/kg. In situ perfusion of the liver was performed as follows. […] To digest the liver, DSC solution (6.7 mM KCl, 143 mM NaCl, 9.2 mM Na HEPES, 5 mM CaCl2—2H2O, 1.7 mM Fructose, 0.029 mM Phenol red, 0.2% BSA, 100 U/ml collagenase Type I, 93 U/ml Hyaluronidase, 160 BAEE/ml trypsin inhibitor, pH 7.5) was perfused through the liver at a flow rate of 30 ml/min for 6 minutes at a temperature of 37° C. After digestion, cells were dispersed in a solution of DMEM− (DMEM containing 2 mM GlutMax-1, 0.2% BSA, 5% FBS, 12 nM insulin, 1.2 μM hydrocortisone) to stop the digestion process. The crude cell suspension was filtered through three layers of stainless steel mesh with pore sizes of 250, 106, and 75 μm respectively. Filtered cells were centrifuged at 50×g for two minutes and the supernatant discarded. The resulting cell pellet was resuspended in DMEM and centrifuged again. This final cell pellet was resuspended in DMEM+HS solution (DMEM containing 2 mM GlutMax-1, 20 nM delta-aminolevulinic acid, 17.4 mM MEM non-essential amino acids, 20% FBS, 12 nM insulin, 1.2 μM hydrocortisone) and plated to form monolayer cultures at a density of 100×10^3 cells/cm^2 on collagen coated culture dishes. […]

Compound: CC(C)(CO)CCCCOCCCCC(C)(C)CO [Compound A, 6-(6-hydroxy-5,5-dimethylhexyloxy)-2,2-dimethyl-hexan-1-ol]
change in VLDL cholesterol (male Sprague-Dawley rats): no change
increase in body weight (obese female Zucker rats [1]; 86 mg/kg): 5.4%
glucose to insulin ratio (obese female Zucker rats [2]; 100 mg/kg): reduced
blood glucose (obese female Zucker rats [2]; 100 mg/kg, fasted): tendency to lower blood glucose
decline of glucose to insulin ratio (obese female Zucker rats [2]; 1 and 3 mg/kg, over two weeks (same as control)): ⅓ to ½
weight gain (obese female Zucker rats [2]; 10, 30 and 100 mg/kg, after one and two weeks): markedly reduced
glucose to insulin ratio (obese female Zucker rats [2]; 10 and 30 mg/kg): sustained at pretreatment levels
sharp rise in serum insulin (obese female Zucker rats [2]; higher doses (above 3 mg/kg)): largely curtailed or minimized
HDL [3]: HDL elevation
LDL cholesterol [3]: rapid and significant reduction

weight gain (obese female Zucker rats [1]; 120 mg/kg): +11.6%
weight gain (obese female Zucker rats [2]; after two weeks at 12, 40 and 120 mg/kg, after one week at 120 mg/kg): increased weight gain
Compound: Cc1c(C)c2c(c(C)c1O)CCC(C)(COc1ccc(CC3SC(=O)NC3=O)cc1)O2 (stereo not drawn) [troglitazone, reference compound]
percent liver to body weight (obese female Zucker rats [2]; after two weeks, doses 12, 40, 120 mg/kg (FIG. 16)): reduced at all doses

Compound: CC(C)(CCCOCCCC(C)(C)OP(=O)(OCc1ccccc1)OCc1ccccc1)OP(=O)(OCc1ccccc1)OCc1ccccc1 [Compound E, phosphoric acid dibenzyl ester 4-(4-(bis-benzyloxy-phosphoryloxy)-4-methyl-pentyloxy)-1,1-dimethyl-butyl ester]
rates of saponified fatty acid synthesis (primary rat hepatocytes): reduced

Compound: CC(C)(O)CCCCOCCCCC(C)(C)O [Compound F, 6-(5-hydroxy-5-methyl-hexyloxy)-2-methyl-hexan-2-ol]
rates of saponified fatty acid synthesis (primary rat hepatocytes): reduced
